Laboratory results reported in ChEMBL document CHEMBL6153141, “Design, Synthesis, and Mechanism Study of Novel BMX Inhibitors Based on the Core of 1,3,5-Triazin-2-Amine for the Treatment of Gastric Carcinoma” (J Med Chem, 2025).
The source made the active and inactive calls. The rule behind the calls is not given here.

Tests used:
[1] = biological target: Tyrosine-protein kinase BTK (Homo sapiens, UniProt Q06187); experiment: Inhibition of BTK (unknown origin)
A549 = experiment: cells; conditions: Homo sapiens, A549, 72 h
Description: Anticancer activity against human A549 cells assessed as inhibition of cell proliferation incubated for 72 hrs by MTT assay

PC-9 = experiment: cells; conditions: Homo sapiens, PC-9, 72 h
Description: Anticancer activity against human PC-9 cells assessed as inhibition of cell proliferation incubated for 72 hrs by MTT assay

NCI-H1975 = experiment: cells; conditions: Homo sapiens, NCI-H1975, 72 h
Description: Anticancer activity against human NCI-H1975 cells assessed as inhibition of cell proliferation incubated for 72 hrs by MTT assay

HCC827 = experiment: cells; conditions: Homo sapiens, HCC827, 72 h
Description: Anticancer activity against human HCC827 cells assessed as inhibition of cell proliferation incubated for 72 hrs by MTT assay

NCI-H460 = experiment: cells; conditions: Homo sapiens, NCI-H460, 72 h
Description: Anticancer activity against human NCI-H460 cells assessed as inhibition of cell proliferation incubated for 72 hrs by MTT assay

DU-145 = experiment: cells; conditions: Homo sapiens, DU-145, 72 h
Description: Anticancer activity against human DU-145 cells assessed as inhibition of cell proliferation incubated for 72 hrs by MTT assay

PC-3 = experiment: cells; conditions: Homo sapiens, PC-3, 72 h
Description: Anticancer activity against human PC-3 cells assessed as inhibition of cell proliferation incubated for 72 hrs by MTT assay

CWR22R = experiment: cells; conditions: Homo sapiens, 22Rv1, 72 h
Description: Anticancer activity against human 22Rv1 cells assessed as inhibition of cell proliferation incubated for 72 hrs by MTT assay

HGC-27 [2] = experiment: Anticancer activity against human HGC-27 cells assessed as inhibition of cell proliferation incubated for 72 hrs by MTT assay; format: functional, cell-based; conditions: HGC-27, 72 h
MGC-803 = experiment: Anticancer activity against human MGC-803 cells assessed as inhibition of cell proliferation incubated for 72 hrs by MTT assay; format: functional, cell-based; conditions: MGC-803, 72 h
AGS = experiment: Anticancer activity against human AGS cells assessed as inhibition of cell proliferation incubated for 72 hrs by MTT assay; format: functional, cell-based
MDA-MB-231 = experiment: Anticancer activity against human MDA-MB-231 cells assessed as inhibition of cell proliferation incubated for 72 hrs by MTT assay; format: functional, cell-based; conditions: MDA-MB-231, 72 h
MCF7 = experiment: Anticancer activity against human MCF7 cells assessed as inhibition of cell proliferation incubated for 72 hrs by MTT assay; format: functional, cell-based; conditions: MCF7, 72 h
4T1 = experiment: Anticancer activity against mouse 4T1 cells assessed as inhibition of cell proliferation incubated for 72 hrs by MTT assay; format: functional, cell-based; conditions: 4T1, 72 h
HeLa = experiment: Anticancer activity against human HeLa cells assessed as inhibition of cell proliferation incubated for 72 hrs by MTT assay; format: functional, cell-based
HONE1 cell line = experiment: Anticancer activity against human HONE1 cell line assessed as inhibition of cell proliferation incubated for 72 hrs by MTT assay; format: functional, cell-based; conditions: HONE1, 72 h
C6661 = experiment: Anticancer activity against human C666-1 cells assessed as inhibition of cell proliferation incubated for 72 hrs by MTT assay; format: functional, cell-based; conditions: C6661, 72 h
HCT-116 = experiment: Anticancer activity against human HCT-116 cells assessed as inhibition of cell proliferation incubated for 72 hrs by MTT assay; format: functional, cell-based; conditions: HCT-116, 72 h
HepG2 = experiment: Anticancer activity against human HepG2 cells assessed as inhibition of cell proliferation incubated for 72 hrs by MTT assay; format: functional, cell-based; conditions: HepG2, 72 h
[3] = Cytotoxicity against human L02 cells assessed as inhibition of cell proliferation incubated for 72 hrs by MTT assay; format: toxicity, cell-based
[4] = Cytotoxicity against H9c2 cells assessed as inhibition of cell proliferation incubated for 72 hrs by MTT assay; format: toxicity, cell-based; conditions: rat
[5] = Cytotoxicity against HEK293 cells assessed as inhibition of cell proliferation incubated for 72 hrs by MTT assay; format: toxicity, cell-based; conditions: human
[6] = Cytotoxicity against human GES1 cells assessed as inhibition of cell proliferation incubated for 72 hrs by MTT assay; format: toxicity, cell-based
HGC-27 [7] = experiment: Antitumor activity against human HGC-27 cells xenografted in female BALB/c nude mouse model assessed as reduction in tumor growth at 15 mg/kg/day, ip administered for 21 days relative to control; format: functional; design: scale not given: the % may be the effect or the level left; conditions: time 21 day
HGC-27 [8] = experiment: Antitumor activity against human HGC-27 cells xenografted in female BALB/c nude mouse model assessed as reduction in tumor weight at 15 mg/kg/day, ip administered for 21 days; format: functional, organism-based; conditions: time 21.0 day

Chain of Tyrosine-protein kinase BTK (Q06187 whole entry): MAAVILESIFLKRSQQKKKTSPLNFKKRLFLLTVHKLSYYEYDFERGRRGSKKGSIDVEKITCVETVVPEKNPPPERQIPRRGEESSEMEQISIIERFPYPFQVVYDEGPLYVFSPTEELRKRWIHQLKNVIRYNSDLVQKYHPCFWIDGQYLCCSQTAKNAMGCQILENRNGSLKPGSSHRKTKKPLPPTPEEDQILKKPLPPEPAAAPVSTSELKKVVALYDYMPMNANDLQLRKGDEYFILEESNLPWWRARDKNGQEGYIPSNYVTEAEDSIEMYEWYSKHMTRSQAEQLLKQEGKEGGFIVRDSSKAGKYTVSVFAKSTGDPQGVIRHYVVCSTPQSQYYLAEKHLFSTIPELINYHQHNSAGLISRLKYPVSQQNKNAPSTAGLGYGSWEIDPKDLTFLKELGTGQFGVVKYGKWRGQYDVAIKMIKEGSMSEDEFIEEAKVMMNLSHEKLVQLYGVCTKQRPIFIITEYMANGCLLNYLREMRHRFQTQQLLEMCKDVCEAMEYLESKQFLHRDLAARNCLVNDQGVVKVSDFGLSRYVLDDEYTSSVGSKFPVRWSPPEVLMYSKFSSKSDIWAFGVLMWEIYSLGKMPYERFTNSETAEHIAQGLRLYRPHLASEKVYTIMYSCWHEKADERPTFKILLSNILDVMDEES

Structure (SMILES)	IC50 (A549)	IC50 (PC-9)	IC50 (NCI-H1975)	IC50 (HCC827)	IC50 (NCI-H460)	IC50 (DU-145)	IC50 (PC-3)	IC50 (CWR22R)	further results
Cn1cc(Nc2nc(N)nc(-c3cccc(-n4ccc5cc(C6CC6)ccc5c4=O)c3CO)n2)cn1	–	–	–	–	–	–	–	–	IC50 [1]: 0.0042 µM
C=CS(=O)(=O)N1CC[C@@H](Nc2nc(N)nc(Nc3ccc(Oc4ccccc4)cc3)n2)C1	> 32 µM	> 32 µM	> 32 µM	12.6 µM	> 32 µM	22.4 µM	> 32 µM	> 32 µM	–
C=CC(=O)N1CCC[C@@H](n2nc(-c3ccc(Oc4ccccc4)cc3)c3c(N)ncnc32)C1 [IBRUTINIB]	17.6 µM	3.1 µM	5.6 µM	0.1 µM	12.7 µM	5.3 µM	21.1 µM	26.7 µM	IC50 (HGC-27 [2]): 16 µM; IC50 (MGC-803): 9.2 µM; IC50 (AGS): 10.4 µM; IC50 (MDA-MB-231): 28.9 µM; IC50 (MCF7): 29.9 µM; IC50 (4T1): 9.3 µM; IC50 (HeLa): 28.1 µM; IC50 (HONE1 cell line): 24.5 µM; IC50 (C6661): 17 µM; IC50 (HCT-116): 17.7 µM; IC50 (HepG2): > 32 µM; IC50 at 72 h [3]: > 32 µM; IC50 at 72 h [4]: > 32 µM; IC50 at 72 h [5]: > 32 µM; IC50 at 72 h [6]: 28.6 µM; Activity (HGC-27 [7]): 17.03%; Activity (HGC-27 [8]): Active
C=CS(=O)(=O)N1CCC[C@@H](Nc2nc(N)nc(Nc3cccc(OCc4ccccc4)c3)n2)C1	25 µM	21.9 µM	4.3 µM	3 µM	14.3 µM	9.7 µM	18.6 µM	23.7 µM	IC50 (HGC-27 [2]): 15.6 µM; IC50 (MGC-803): 13.4 µM; IC50 (AGS): 9.2 µM; IC50 (MDA-MB-231): 12.1 µM; IC50 (MCF7): 18.4 µM; IC50 (4T1): 17.5 µM; IC50 (HeLa): 14.5 µM; IC50 (HONE1 cell line): 14 µM; IC50 (C6661): 18.9 µM; IC50 (HCT-116): 19.6 µM; IC50 (HepG2): > 32 µM; IC50 at 72 h [3]: > 32 µM; IC50 at 72 h [4]: > 32 µM; IC50 at 72 h [5]: > 32 µM; IC50 at 72 h [6]: 13.9 µM
C=CS(=O)(=O)N1CCC[C@@H](Nc2nc(N)nc(Nc3ccc(OCc4ccccc4)cc3)n2)C1	> 32 µM	> 32 µM	> 32 µM	> 32 µM	> 32 µM	19 µM	> 32 µM	> 32 µM	–
C=CS(=O)(=O)N1CCC(CNc2nc(N)nc(Nc3ccc(Oc4ccccc4)cc3)n2)CC1	> 32 µM	> 32 µM	> 32 µM	29.3 µM	> 32 µM	> 32 µM	> 32 µM	> 32 µM	–
C=CS(=O)(=O)N1CCC[C@@H](Nc2nc(N)nc(Nc3ccc(Oc4ccccc4)cc3)n2)C1	> 32 µM	> 32 µM	29.8 µM	5.2 µM	> 32 µM	> 32 µM	> 32 µM	> 32 µM	–
